Experimental data reported in patent publication US11767322B2 (BRISTOL-MYERS SQUIBB COMPANY, priority 2020, dated 2023).
Where two headings read alike, the source gives them in different places.

What was measured:
[1] = test system: MLKL phosphorylation in HT29-L23 human colorectal adenocarcinoma cells; assay: MLKL phosphorylation high-content assay; assay type: cell-based
[2] = biological target: T1, His-GST-TVMV-hRIPK1(1-324) (Homo sapiens, UniProt Q13546); assay: biochemical; assay type: binding
T1 construct: The coding region of human RIPK1(1-324) flanked by NdeI site at 5′ end; made in house; host or cells: Spodoptera frugiperda Sf9 insect cells (baculovirus, Bac-to-Bac)
T1 sequence (Q13546 1-324): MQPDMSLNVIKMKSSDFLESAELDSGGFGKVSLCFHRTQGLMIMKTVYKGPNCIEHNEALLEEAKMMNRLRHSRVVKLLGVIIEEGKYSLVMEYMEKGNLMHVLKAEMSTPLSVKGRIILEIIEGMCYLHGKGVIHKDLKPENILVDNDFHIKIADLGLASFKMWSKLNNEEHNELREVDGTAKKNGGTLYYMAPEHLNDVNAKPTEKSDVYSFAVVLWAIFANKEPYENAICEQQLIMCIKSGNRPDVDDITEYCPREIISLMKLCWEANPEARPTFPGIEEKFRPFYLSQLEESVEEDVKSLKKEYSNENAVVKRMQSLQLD

[3] = biological target: GST-tagged PIK3Cδ in complex with PIK3R1 (Homo sapiens, UniProt O00329); assay: PI3Kδ HTRF binding assay; conditions: read-out: PIK3CD IC50
[4] = Homo sapiens, 6 h, read-out: pMLKL IC50, HT29-L23 cells, necroptosis induced with TNFα, SMAC mimetic and Z-VAD, 6 h, maximal inhibition defined by Nec1s
[5] = HTRF probe displacement, 1 h at rt, read-out: RIPK1 IC50
[6] = HTRF probe displacement, 1 h at rt
[7] = Homo sapiens, read-out: pMLKL IC50, Table 22, compounds of the present invention
[8] = Table 22, compounds of the present invention, read-out: RPIK1 IC50
[9] = Homo sapiens, 6 h, HT29-L23 cells, necroptosis induced with TNFα, SMAC mimetic and Z-VAD, 6 h, maximal inhibition defined by Nec1s, read-out: pMLKL IC50
[10] = Homo sapiens, Table 22, compounds of the present invention, read-out: pMLKL IC50
[11] = read-out: pMLKL IC50, HT29-L23 cells, necroptosis induced with TNFα, SMAC mimetic and Z-VAD, 6 h, maximal inhibition defined by Nec1s

GST-tagged PIK3Cδ in complex with PIK3R1, sequence (O00329 whole entry): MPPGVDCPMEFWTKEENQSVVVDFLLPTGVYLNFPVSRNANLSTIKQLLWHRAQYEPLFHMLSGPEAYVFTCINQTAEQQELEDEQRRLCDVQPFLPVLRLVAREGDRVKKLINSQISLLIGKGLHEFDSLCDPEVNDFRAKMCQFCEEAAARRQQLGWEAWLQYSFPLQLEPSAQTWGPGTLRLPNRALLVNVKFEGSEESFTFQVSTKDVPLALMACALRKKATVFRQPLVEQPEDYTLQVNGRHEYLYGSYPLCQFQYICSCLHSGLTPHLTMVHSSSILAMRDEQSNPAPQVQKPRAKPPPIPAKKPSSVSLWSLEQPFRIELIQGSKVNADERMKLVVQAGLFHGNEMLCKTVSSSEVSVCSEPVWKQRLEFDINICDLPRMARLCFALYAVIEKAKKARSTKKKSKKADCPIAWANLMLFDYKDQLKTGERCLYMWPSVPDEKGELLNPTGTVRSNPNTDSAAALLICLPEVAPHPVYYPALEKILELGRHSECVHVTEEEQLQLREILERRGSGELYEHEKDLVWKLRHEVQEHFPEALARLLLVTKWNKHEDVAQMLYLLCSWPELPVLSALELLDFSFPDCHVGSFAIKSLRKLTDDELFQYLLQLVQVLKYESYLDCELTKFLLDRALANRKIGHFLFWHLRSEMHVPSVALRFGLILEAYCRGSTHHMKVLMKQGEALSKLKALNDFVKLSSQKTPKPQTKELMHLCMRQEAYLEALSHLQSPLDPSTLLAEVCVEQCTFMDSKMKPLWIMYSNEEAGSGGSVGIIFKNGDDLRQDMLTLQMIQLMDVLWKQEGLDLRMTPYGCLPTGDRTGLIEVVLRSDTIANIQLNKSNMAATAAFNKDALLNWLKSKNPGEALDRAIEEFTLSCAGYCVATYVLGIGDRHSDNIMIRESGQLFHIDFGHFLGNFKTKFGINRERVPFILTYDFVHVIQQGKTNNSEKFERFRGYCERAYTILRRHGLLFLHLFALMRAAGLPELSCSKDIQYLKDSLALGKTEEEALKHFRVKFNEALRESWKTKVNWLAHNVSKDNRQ
GST-tagged PIK3Cδ in complex with PIK3R1, sequence (P27986 whole entry partner): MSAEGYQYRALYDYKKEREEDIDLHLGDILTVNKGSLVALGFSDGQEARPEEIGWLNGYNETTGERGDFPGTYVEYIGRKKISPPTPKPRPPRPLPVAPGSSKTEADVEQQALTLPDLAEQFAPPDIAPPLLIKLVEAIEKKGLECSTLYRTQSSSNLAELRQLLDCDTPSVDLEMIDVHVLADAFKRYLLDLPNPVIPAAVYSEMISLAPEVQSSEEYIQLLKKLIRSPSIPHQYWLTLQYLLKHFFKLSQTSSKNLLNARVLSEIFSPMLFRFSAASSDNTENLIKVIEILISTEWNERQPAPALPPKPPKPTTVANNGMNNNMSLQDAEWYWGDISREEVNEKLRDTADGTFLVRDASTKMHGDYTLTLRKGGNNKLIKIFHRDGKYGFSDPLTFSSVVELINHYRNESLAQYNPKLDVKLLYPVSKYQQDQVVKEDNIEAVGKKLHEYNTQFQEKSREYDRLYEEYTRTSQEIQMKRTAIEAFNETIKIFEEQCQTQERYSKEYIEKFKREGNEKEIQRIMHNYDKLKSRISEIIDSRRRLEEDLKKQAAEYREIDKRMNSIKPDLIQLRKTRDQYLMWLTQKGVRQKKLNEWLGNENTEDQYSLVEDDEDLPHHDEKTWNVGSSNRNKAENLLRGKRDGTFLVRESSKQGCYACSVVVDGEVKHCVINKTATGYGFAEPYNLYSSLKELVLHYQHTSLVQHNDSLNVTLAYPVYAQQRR

SMILES	IC50 [1, 4]	IC50 [2, 5]	IC50 [3, 6]	IC50 [1, 7]	IC50 [2, 8]	IC50 [3]	IC50 [1, 9]	IC50 [1, 10]	IC50 [1, 11]
C#Cc1ccc([C@@H](O)CCNC(=O)c2c(C)ccc(-c3ccn4nc(N)nc4c3)c2F)cc1 [Example 142, 3-{2-amino-[1,2,4]triazolo[1,5-a]pyridin-7-yl}-N-[(3S)-3-(4-ethynylphenyl)-3-hydroxypropyl]-2-fluoro-6-methylbenzamide]	2.5 nM	3.3 nM	> 15000 nM	–	–	–	–	–	–
Cc1ccc(-c2ccn3nc(N)nc3c2)c(Cl)c1C(=O)NCC[C@H](O)c1ccc(Cl)cc1 [Example 145, (S)-3-(2-amino-[1,2,4]triazolo[1,5-a]pyridin-7-yl)-2-chloro-N-(3-(4-chlorophenyl)-3-hydroxypropyl)-6-methylbenzamide]	35 nM	21 nM	> 15000 nM	–	–	–	–	–	–
COc1ccc(-c2ccn3nc(N)nc3c2)c(F)c1C(=O)NCC[C@H](O)c1ccc(Cl)cc1 [Example 147, (S)-3-(2-amino-[1,2,4]triazolo[1,5-a]pyridin-7-yl)-N-(3-(4-chlorophenyl)-3-hydroxypropyl)-2-fluoro-6-methoxybenzamide]	21 nM	9.4 nM	–	21 nM	9.4 nM	13000 nM	–	–	–
COc1ccc(-c2ccn3nc(N)nc3c2)c(F)c1C(=O)NCC[C@@H](O)c1ccc(Cl)cc1 [Example 148, (R)-3-(2-amino-[1,2,4]triazolo[1,5-a]pyridin-7-yl)-N-(3-(4-chlorophenyl)-3-hydroxypropyl)-2-fluoro-6-methoxybenzamide]	17 nM	8.3 nM	–	–	–	5000 nM	–	–	–
Cc1ccc(-c2ccn3nc(N)nc3c2)cc1C(=O)NCC[C@H](O)c1ccc(Cl)cc1 [Example 149, (S)-5-(2-amino-[1,2,4]triazolo[1,5-a]pyridin-7-yl)-N-(3-(4-chlorophenyl)-3-hydroxypropyl)-2-methylbenzamide]	–	8.2 nM	> 15000 nM	–	8.2 nM	–	1.3 nM	1.3 nM	–
CCc1ccc(-c2ccn3nc(N)nc3c2)cc1C(=O)NCC[C@H](O)c1ccc(Cl)cc1 [Example 150, (S)-5-(2-amino-[1,2,4]triazolo[1,5-a]pyridin-7-yl)-N-(3-(4-chlorophenyl)-3-hydroxypropyl)-2-ethylbenzamide]	5.7 nM	1.8 nM	> 15000 nM	–	–	–	–	–	–
Cc1ccc(-c2ccn3nc(N)nc3c2)c(F)c1C(=O)NCC[C@@H](O)c1ccc(Cl)cc1 [Example 152, (R)-3-(2-amino-[1,2,4]triazolo[1,5-a]pyridin-7-yl)-N-(3-(4-chlorophenyl)-3-hydroxypropyl)-2-fluoro-6-methylbenzamide]	0.5 nM	2.3 nM	> 15000 nM	0.5 nM	2.3 nM	–	–	–	–
Nc1nc2cc(-c3ccc(Cl)c(C(=O)NCC[C@H](O)c4ccc(Cl)cc4)c3F)ccn2n1 [Example 153, (S)-3-(2-amino-[1,2,4]triazolo[1,5-a]pyridin-7-yl)-6-chloro-N-(3-(4-chlorophenyl)-3-hydroxypropyl)-2-fluorobenzamide]	8.3 nM	4.1 nM	> 15000 nM	–	–	–	–	–	–
Nc1nc2cc(-c3ccc(Cl)c(C(=O)NCC[C@@H](O)c4ccc(Cl)cc4)c3F)ccn2n1 [Example 154, (R)-3-(2-amino-[1,2,4]triazolo[1,5-a]pyridin-7-yl)-6-chloro-N-(3-(4-chlorophenyl)-3-hydroxypropyl)-2-fluorobenzamide]	1.4 nM	4.7 nM	> 15000 nM	–	–	–	–	–	–
CCc1ccc(-c2ccn3nc(N)nc3c2)c(F)c1C(=O)NCC[C@H](O)c1ccc(Cl)cc1 [Example 155, (S)-3-(2-amino-[1,2,4]triazolo[1,5-a]pyridin-7-yl)-N-(3-(4-chlorophenyl)-3-hydroxypropyl)-6-ethyl-2-fluorobenzamide]	0.6 nM	2.7 nM	> 15000 nM	–	–	–	–	–	–
CCc1ccc(-c2ccn3nc(N)nc3c2)c(F)c1C(=O)NCC[C@@H](O)c1ccc(Cl)cc1 [Example 156, (R)-3-(2-amino-[1,2,4]triazolo[1,5-a]pyridin-7-yl)-N-(3-(4-chlorophenyl)-3-hydroxypropyl)-6-ethyl-2-fluorobenzamide]	0.8 nM	5.8 nM	> 15000 nM	–	–	–	–	–	–
Cc1ccc(-c2ccn3nc(N)nc3c2)cc1C(=O)NCC[C@@H](O)c1ccc(Cl)cc1 [Example 159, (R)-5-(2-amino-[1,2,4]triazolo[1,5-a]pyridin-7-yl)-N-(3-(4-chlorophenyl)-3-hydroxypropyl)-2-methylbenzamide]	–	2.5 nM	> 15000 nM	–	2.5 nM	–	1.9 nM	1.9 nM	–
Nc1nc2cc(-c3ccc(Cl)c(C(=O)NCC(F)(F)C(O)c4ccc(OC(F)F)cc4)c3F)ccn2n1 (centres unmarked) [Example 186, 3-(2-amino-[1,2,4]triazolo[1,5-a]pyridin-7-yl)-6-chloro-N-(3-(4-(difluoromethoxy)phenyl)-2,2-difluoro-3-hydroxypropyl)-2-fluorobenzamide]	–	2.9 nM	12000 nM	–	–	–	–	–	0.2 nM
Nc1nc2cc(-c3ccc(Cl)c(C(=O)NCC(F)(F)C(O)c4ccc(OC(F)F)cc4)c3F)ccn2n1 (centres unmarked) [Example 187, 3-(2-amino-[1,2,4]triazolo[1,5-a]pyridin-7-yl)-6-chloro-N-(3-(4-(difluoromethoxy)phenyl)-2,2-difluoro-3-hydroxypropyl)-2-fluorobenzamide]	–	3.2 nM	> 15000 nM	–	–	–	–	–	1.7 nM
Nc1nc2cc(-c3ccc(Cl)c(C(=O)NCC(F)(F)C(O)c4cc(F)cc(F)c4)c3F)ccn2n1 (centres unmarked) [Example 188, 3-(2-amino-[1,2,4]triazolo[1,5-a]pyridin-7-yl)-6-chloro-N-(3-(3,5-difluorophenyl)-2,2-difluoro-3-hydroxypropyl)-2-fluorobenzamide]	–	6.3 nM	9400 nM	–	–	–	–	–	0.3 nM
Nc1nc2cc(-c3ccc(Cl)c(C(=O)NCC(F)(F)C(O)c4cc(F)cc(F)c4)c3F)ccn2n1 (centres unmarked) [Example 189, 3-(2-amino-[1,2,4]triazolo[1,5-a]pyridin-7-yl)-6-chloro-N-(3-(3,5-difluorophenyl)-2,2-difluoro-3-hydroxypropyl)-2-fluorobenzamide]	–	11 nM	5600 nM	–	–	–	–	–	38 nM
Nc1nc2cc(-c3ccc(Cl)c(C(=O)NCC(F)(F)C(O)c4ccc(Cl)c(F)c4)c3F)ccn2n1 (centres unmarked) [Example 190, 3-(2-amino-[1,2,4]triazolo[1,5-a]pyridin-7-yl)-6-chloro-N-(3-(4-chloro-3-fluorophenyl)-2,2-difluoro-3-hydroxypropyl)-2-fluorobenzamide]	0.7 nM	3.3 nM	> 15000 nM	–	–	–	–	–	–
Nc1nc2cc(-c3ccc(Cl)c(C(=O)NCC(F)(F)C(O)c4ccc(Cl)c(F)c4)c3F)ccn2n1 (centres unmarked) [Example 191]	–	2.6 nM	> 15000 nM	–	–	–	–	–	1.4 nM
Cc1ccc(-c2ccn3nc(N)nc3c2)c(F)c1C(=O)NCCC(O)C1CCCC1 (centres unmarked) [Example 247, 3-(2-amino-[1,2,4]triazolo[1,5-a]pyridin-7-yl)-N-(3-cyclopentyl-3-hydroxypropyl)-2-fluoro-6-methylbenzamide]	21 nM	13 nM	> 15000 nM	–	–	–	–	–	–
Cc1ccc(-c2ccn3nc(N)nc3c2)c(F)c1C(=O)NCCC(O)C1CCCC1 (centres unmarked) [Example 248, 3-(2-amino-[1,2,4]triazolo[1,5-a]pyridin-7-yl)-N-(3-cyclopentyl-3-hydroxypropyl)-2-fluoro-6-methylbenzamide]	–	22 nM	> 15000 nM	–	–	–	–	–	20 nM
Nc1nc2cc(-c3ccc(F)c(C(=O)NCCC4(c5ccc(F)cc5)CC4)c3F)ccn2n1 [Example 249, 3-(2-amino-[1,2,4]triazolo[1,5-a]pyridin-7-yl)-2,6-difluoro-N-(2-(1-(4-fluorophenyl)cyclopropyl)ethyl)benzamide]	10 nM	2.1 nM	> 15000 nM	–	–	–	–	–	–
COc1ccc(-c2ccn3nc(N)nc3c2)c(F)c1C(=O)NCC(F)(F)C(O)c1ccc(Cl)c(Cl)c1 (centres unmarked) [Example 267, 3-{2-amino-[1,2,4]triazolo[1,5-a]pyridin-7-yl}-N-[3-(3,4-dichlorophenyl)-2,2-difluoro-3-hydroxypropyl]-2-fluoro-6-methoxybenzamide]	–	2.8 nM	> 15000 nM	–	–	–	–	–	1 nM
COc1ccc(-c2ccn3nc(N)nc3c2)c(F)c1C(=O)NCC(F)(F)C(O)c1ccc(Cl)c(Cl)c1 (centres unmarked) [Example 268, 3-{2-amino-[1,2,4]triazolo[1,5-a]pyridin-7-yl}-N-[3-(3,4-dichlorophenyl)-2,2-difluoro-3-hydroxypropyl]-2-fluoro-6-methoxybenzamide]	–	3.8 nM	8800 nM	–	–	–	–	–	4.3 nM
